Patent publication EP3349734B1, “USE OF SOLUBLE AND INSOLUBLE FRACTIONS OF A CYCLODEXTRIN POLYMER AND OF MIXTURES THEREOF AS AN EXCIPIENT IN A TABLET” (Université de Lille, priority 2015, dated 2017)

Tests used:
Format in all cases: physicochemical
[1] = Hygroscopicity: water vapour sorption/desorption isotherm (TGA Q5000 SA, 25°C, up to 98% RH); conditions: up to 98% relative humidity
Procedure: Les mesures d'absorption et de désorption d'eau des polymères ont été réalisées à l'aide d'un analyseur thermogravimétrique SA Q5000 de TA Instruments contenant une microbalance dans lequel des creusets contenant l'échantillon et la référence ont été enfermés dans une chambre à humidité et température contrôlées. La température dans le Q5000 SA a été contrôlée par des éléments Peltier. Un gaz sec de N2 (200 mL/min) a été divisé en deux parties, dont une partie a été humidifiée par passage dans une chambre saturée d'eau. L'humidité relative souhaitée (RH) pour les mesures peut ainsi être obtenue par mélange des proportions appropriées (régulées par les contrôleurs de débit massique) de flux sec et humide.
La mesure de l'isotherme standard est composée d'un certain nombre d'étapes. Premièrement, l'échantillon a été séché à 60°C et 0% d'humidité relative pendant un temps déterminé jusqu'à ce que la variation de poids soit stabilisée à moins de 0,05%. Dans un second temps, la température a été abaissée à 25°C. L'humidité a ensuite été augmentée progressivement (par pas de 2% d'humidité relative) à un maximum de 98% d'humidité relative. La variation de poids de l'échantillon a été stabilisée après chaque étape jusqu'à ce qu'elle soit inférieure à 0,05%. L'isotherme de désorption de l'eau a également été mesurée. […]

[2] = Phase-solubility diagram of ibuprofène with cyclodextrins or soluble polymer fractions; conditions: calculated from slope and So of the solubility diagram
Procedure: (§1) Les diagrammes de solubilité de plusieurs principes actifs ont été effectués en présence de cyclodextrines et de fractions solubles de polymères de cyclodextrine mentionnés à l'exemple 1.
(§2) Des solutions de concentration croissante de cyclodextrines et fractions solubles de polymères de cyclodextrine ont été préparées dans de l'eau ultrapure [0-70 g/L]. 10 mL de chacune des solutions ont été mis en présence d'un excès du principe actif (20 mg) sous agitation pendant 24 heures à température ambiante. Les solutions ont ensuite été filtrées avec une membrane en cellulose et en Nylon (0,45 µm; VWR International, USA) respectivement pour l'Ibuprofène et le Piroxicam. L'ibuprofène a été dosé par HPLC (Shimadzu LC-2010 HT Liquid Chromatography), la phase mobile de l'ibuprofène est un mélange acétonitrile/eau (60:40) avec un pH de 2,25, une colonne C18 a été utilisée. Le piroxicam a été dosé par spectrophotométrie UV-Vis à 356 nm (UV 1800 Shimadzu).
(§3) La constante de stabilité (K1:1) est utilisée pour comparer l'affinité de principes actifs pour différentes cyclodextrines ou dérivés. La solubilité totale de médicament (St) en solution aqueuse de cyclodextrine sera : [formula]
(§4) So = solubilité intrinsèque du médicament; [CD]1 = concentration totale en cyclodextrine dans le milieu aqueux
(§5) Une parcelle de St rapport [CD] t, selon l'équation (1), donnera une ligne droite avec une pente (K 1:1 So / (1 + K 1:1 So)) et une interception (Sint) égale à So. K 1:1 est calculée à partir de la pente et So : [formula]
Afin de pouvoir faire une comparaison directe entre cyclodextrine monomère et cyclodextrine polymérisée, les diagrammes de solubilité sont présentés en fonction de la concentration rapportée en gramme de monomère de cyclodextrine par litre. Tableau 3 : Solubilité de l'ibuprofène et constantes de complexation en présence des cyclodextrines ou de fractions solubles de polymères de cyclodextrine à 10 et 50 g/L en cyclodextrine. L'utilisation de cyclodextrines sous forme de monomères ne tombe pas sous l'étendue de la protection revendiquée.

[3] = Phase-solubility diagram of piroxicam with cyclodextrins or soluble polymer fractions; conditions: calculated from slope and So of the solubility diagram
Procedure: as §1, §2, §3, §4, §5

[4] = Tapped density, Carr compressibility index and flow of the powder; conditions: for TAP (Ic^∗): Carr index after 500 taps
Procedure: Densité après tassement et indice de compressibilité de la composition compressible.
L'appareil utilisé est un appareil de tassement (Engelsmann powder tester, PTTD200, Pharma Test Instruments, India) composé d'une éprouvette graduée de 100 mL sur un socle vibrant. Les manipulations ont été réalisées suivant les conditions décrites dans la pharmacopée européenne (1997). Pour chaque poudre, le volume initial avant tassement est mesuré (V0) permettant de calculer la densité p0. Le volume final (Vf) de la poudre est ensuite mesuré après 500 tassements. La densité finale de la poudre après tassement peut ainsi être calculée (pf). On en déduit également l'indice de compressibilité ou Indice de Carr (Ic) donné par la formule suivante : [formula]
Les poudres ayant un indice de Carr inférieur à 20% présentent un bon écoulement.

[5] = Tablet breaking strength (hardness), 5 mm / 100 mg tablets; conditions: no active ingredient, no other additive
Text: La machine à comprimer alternative utilisée était une Korsch (Allemagne) équipé de poinçon plat cylindrique de diamètre 5 mm. Les étapes de compression étaient les suivantes: (1) le remplissage de la matrice par écoulement du mélange, (2) arasage, (3) compression et (4) éjection du comprimé. L'épaisseur moyenne des comprimés est de 3,2 mm.
Cet essai est destiné à déterminer, dans des conditions définies, la résistance à la rupture des comprimés, mesurée par la force nécessaire pour les rompre par écrasement entre deux mâchoires.
L'appareil utilisé (PTB 311E, Pharma test Instruments, Inde) est constitué de deux mâchoires se faisant face, dont l'une se déplace vers l'autre qui est fixe. Les surfaces planes des mâchoires sont perpendiculaires à la direction de déplacement.
Le mode opératoire consistait à mettre en place le comprimé à plat entre les mâchoires, puis, une mâchoire se déplaçait à vitesse constante pour appliquer une force jusqu'à la rupture du comprimé. Cette force maximale est notée et considérée comme la dureté du comprimé. La façon dont un comprimé se fracture quand une force croissante est appliquée varie considérablement selon les diverses caractéristiques des produits.

[6] = Tablet disintegration time in water; conditions: 100 mg tablets
Procedure: L'appareil utilisé était un appareil de désintégration manuelle PTZ-S, Pharma Test Instruments (Inde), composé d'un panier porte-tubes, un vase cylindrique bas de 1000 mL destiné à contenir le fluide d'immersion, un agencement thermostatique pour chauffer le fluide entre 35°C et 39°C, et d'un dispositif servant à imprimer au porte-tubes, dans le liquide d'immersion, un mouvement vertical alternatif. Le panier est composé de six tubes transparents verticaux, ouverts à leur extrémité supérieure et fermés à l'extrémité inférieure par une grille, un comprimé était placé dans chacun des six tubes du panier. Le fluide d'immersion était l'eau.
Le temps de désintégration a été déterminé comme le temps nécessaire pour que les comprimés passent à travers les mailles de la grille.

OC[C@H]1O[C@@H]2O[C@H]3[C@H](O)[C@@H](O)[C@@H](O[C@H]4[C@H](O)[C@@H](O)[C@@H](O[C@H]5[C@H](O)[C@@H](O)[C@@H](O[C@H]6[C@H](O)[C@@H](O)[C@@H](O[C@H]7[C@H](O)[C@@H](O)[C@@H](O[C@H]8[C@H](O)[C@@H](O)[C@@H](O[C@H]1[C@H](O)[C@H]2O)O[C@@H]8CO)O[C@@H]7CO)O[C@@H]6CO)O[C@@H]5CO)O[C@@H]4CO)O[C@@H]3CO [βCD, β-cyclodextrine]
valeur maximale de prise d'eau [1]: 0,18 g/g | Constante de complexation K1:1 [2]: 11 M⁻¹ | Constante de complexation K1:1 [3]: 173 M⁻¹ | TAP (Ic^∗) [4]: > 20% | TAP (Ic^∗) ([4]; listed as CD (monomère)): 23,1% | Ecoulement ([4]; powder of βCD polymer fractions): Non Libre | Résistance à la rupture [5]: 45-50 N | Temps de désagrégation [6]: > 30 min
